Key:
[1] = tested on: murine B16 melanoma cells; test: Anti-tumor effect: tumor weight at necropsy (Day 16) in mice bearing subcutaneous B16 melanoma; assay type: in vivo, C57BL/6 mice
Experimental: (§1) The toxic effects of the dosing regimens were also monitored. […] Meanwhile 9H10 was given in two groups via i.p. on Day 3, 6 and 9. […] Tumor volume and body weight were measured every three days, and tumor weights were measured on Day 16 at the end of the study.
On the day of tumor implantation, approximately 1×10^6 cells in 0.1 mL were subcutaneously injected on the right axillary area of each mouse. The day of tumor implantation was defined as Day 0.
(§2) On Day 3, the animals were randomly assigned into nine different weight-matched and tumor-size-matched groups. Dosing was started on Day 3 using the regimen according to Table 2.
(§3) From Day 1 to Day 15, mortality and moribundity were checked twice daily, the body weights were recorded once every 3 days, and tumors were measured using a caliper once every 3 days. At the end of the study (Day 16), the animals were euthanized by CO2 asphyxiation, and the tumors were excised and weighed.
The anti-tumor effect of the test article was further evaluated with tumor weight (TW) measured on day of necropsy (Day 16). The PI of TW was calculated using the equation below:
PITW(%)=100×(TW vehicle−TW drug treated)/TW vehicle
(§4) Inter-group comparison was performed in terms of tumor volume, tumor weight and body weight, using a student's t test. P values of less than 0.05 were considered to be statistically significant.

[2] = Treatment toxicity: body weight and drug-induced animal deaths in B16 melanoma-bearing mice; assay type: in vivo, C57BL/6 mice
Experimental: as §1, §2, §3
Toxicity of all treatment regimens was evaluated with the body weights of the study animals along with the drug-induced animal deaths. The inhibition of body weight was calculated using Excel according to the equation below:
PIBW(%)=100×(BW vehicle−BW drug treated)/BW vehicle
as §4

## CNC(=O)c1cc(Oc2ccc(NC(=O)Nc3ccc(Cl)c(C(F)(F)F)c3)cc2)ccn1 [Sorafenib]
[1]; animal F1
  Tumor weight on Day 16: 0.23 g
[1]; animal F2
  Tumor weight on Day 16: 0.16 g
[1]; animal F3
  Tumor weight on Day 16: 0.32 g
[1]; animal F4
  Tumor weight on Day 16: 0.30 g
[1]; animal F5
  Tumor weight on Day 16: 0.16 g
[1]; animal M1
  Tumor weight on Day 16: 0.10 g
[1]; animal M2
  Tumor weight on Day 16: 0.38 g
[1]; animal M3
  Tumor weight on Day 16: 0.20 g
[1]; animal M4
  Tumor weight on Day 16: 0.25 g
[1]; animal M5
  Tumor weight on Day 16: 0.32 g
[1]; group mean
  Tumor Weight (g) (Mean ± SD): 0.24 ± 0.088 g
[1]; vs vehicle
  percent inhibition of tumor weight vs vehicle: 85.76%
[2]; Day 0 (tumor implantation, before dosing)
  Body Weight (g) (Mean ± SD): 21.02 ± 0.834 g
[2]; Day 0
  Percent inhibition of body weight vs vehicle (PIBW): −0.9121%
[2]; Day 3
  Percent inhibition of body weight vs vehicle (PIBW): 0.0000%
[2]; Day 6
  Body Weight (g) (Mean ± SD): 20.74 ± 1.023 g
  Percent inhibition of body weight vs vehicle (PIBW): −1.6667%
[2]; Day 9
  Body Weight (g) (Mean ± SD): 19.75 ± 1.307 g
  Percent inhibition of body weight vs vehicle (PIBW): 3.2337%
[2]; Day 9, animal F1
  Body weights on Day 9: 18.60 g
[2]; Day 9, animal F2
  Body weights on Day 9: 18.40 g
[2]; Day 9, animal F3
  Body weights on Day 9: 18.40 g
[2]; Day 9, animal F4
  Body weights on Day 9: 18.60 g
[2]; Day 9, animal F5
  Body weights on Day 9: 19.80 g
[2]; Day 9, animal M1
  Body weights on Day 9: 20.80 g
[2]; Day 9, animal M2
  Body weights on Day 9: 22.10 g
[2]; Day 9, animal M3
  Body weights on Day 9: 20.40 g
[2]; Day 9, animal M4
  Body weights on Day 9: 21.10 g
[2]; Day 9, animal M5
  Body weights on Day 9: 19.30 g
[2]; Day 12
  Body Weight (g) (Mean ± SD): 20.09 ± 1.534 g
  Percent inhibition of body weight vs vehicle (PIBW): 8.2229%
[2]; Day 12, animal F1
  Body weights on Day 12: 19.00 g
[2]; Day 12, animal F2
  Body weights on Day 12: 17.20 g
[2]; Day 12, animal F3
  Body weights on Day 12: 20.80 g
[2]; Day 12, animal F4
  Body weights on Day 12: 18.30 g
[2]; Day 12, animal F5
  Body weights on Day 12: 20.30 g
[2]; Day 12, animal M1
  Body weights on Day 12: 22.10 g
[2]; Day 12, animal M2
  Body weights on Day 12: 21.40 g
[2]; Day 12, animal M3
  Body weights on Day 12: 20.40 g
[2]; Day 12, animal M4
  Body weights on Day 12: 21.50 g
[2]; Day 12, animal M5
  Body weights on Day 12: 19.90 g
[2]; Day 12, listed as Sorafenib alone
  Percent inhibition of body weight vs vehicle (PIBW): 8.22%
[2]; Day 15
  Body Weight (g) (Mean ± SD): 21.41 ± 1.919 g
  Percent inhibition of body weight vs vehicle (PIBW): 3.2972%
[2]; Day 15, animal F1
  Body weights on Day 15: 20.70 g
[2]; Day 15, animal F2
  Body weights on Day 15: 17.50 g
[2]; Day 15, animal F3
  Body weights on Day 15: 21.10 g
[2]; Day 15, animal F4
  Body weights on Day 15: 19.90 g
[2]; Day 15, animal F5
  Body weights on Day 15: 21.50 g
[2]; Day 15, animal M1
  Body weights on Day 15: 23.90 g
[2]; Day 15, animal M2
  Body weights on Day 15: 23.80 g
[2]; Day 15, animal M3
  Body weights on Day 15: 22.20 g
[2]; Day 15, animal M4
  Body weights on Day 15: 22.80 g
[2]; Day 15, animal M5
  Body weights on Day 15: 20.70 g

— patent US20100267637A1, “TREATMENT OF MELANOMA WITH ALPHA THYMOSIN PEPTIDES IN COMBINATION WITH A KINASE INHIBITOR” (SciClone Pharmaceuticals, Inc., priority 2007, published 2010)
